Laboratory results taken from PMC11620517, “Novel hydrazone compounds with broad-spectrum antiplasmodial activity and synergistic interactions with antimalarial drugs” (Antimicrobial Agents and Chemotherapy, 2024).
pIC50: −log10 of the molar value. Like-named read-outs stand apart in the source and are kept apart here.

How the values were obtained:
[1] = test system: primary primate hepatocytes; assay: hepatocyte toxicity in the P. cynomolgi liver-stage assay; format: cell-based
Method: (§1) Primary primate hepatocytes were seeded in 384-well plates and used within 2–4 days ([56]). P. cynomolgi B strain parasites were inoculated and developed into hypnozoites and schizonts. CB compounds were tested in 8-point, threefold serial dilutions (100 µM to […]) for both prophylactic (4 days starting with sporozoite addition) and radical cure (4 days starting day 4 post-inoculation) modalities ([56][–][60]). The Operetta CLS imaging system and Harmony Software 4.9 (Perkin Elmer, Waltham, MA, USA) analyzed the plates, and the percentage of inhibition (PI) was calculated in Python using equation (1), where parasitic quantities (hypnozoite and schizont counts) were normalized to the negative control ([57]). Each plate included negative (DMSO) and positive (KDU691, maduramicin, tafenoquine) controls ([58]). IC50 values were determined using an 8-point, threefold dilution format and a Python-adapted grid algorithm for fitting PI to a four-parameter logistic function ([61]).

[2] = test system: recombinant P. berghei GST; assay: GST inhibition assay (CDNB); format: biochemical, Plasmodium berghei
Method: (§2) Enzymatic activities of recombinant GSTs were determined spectrophotometrically using the chromogenic substrate 1-chloro-2,4-dinitrobenzene (CDNB). Recombinant GST (0.35 mg/mL) was mixed with 1 mM CDNB in 100 mM HEPES. Stock solutions (10 mM) of the CB compounds and hemin were prepared in 100% dimethyl sulfoxide (DMSO) and then diluted at 0.5% DMSO ([14]). Each inhibitor has six concentrations ranging from 1 to 50 µM. The reaction was initiated with 1 mM glutathione (GSH) after 15 minutes. Absorbance change at 340 nm was measured for 1 hour. The slope was converted to micromole per minute using Beer’s equation and the extinction coefficient for the product S-(2,4-dinitrophenyl)glutathione (ε340 nm = 9.6 mM^–1 cm^–1) ([14]). The assay was validated using human placenta GST (#G8642) as a positive control.

in vitro = details: human, HepG2 cells
Method: HepG2 cell viability was assessed using the Cell Proliferation kit with trypan blue exclusion. […] After incubation, a 1.5-mg/mL Cell Proliferation kit solution diluted in complete MEM medium was added to each well, followed by 1-hour dark incubation at 25°C. After aspiration of media and inhibitors, the plates were dried in a hood for 15 minutes, and acidified isopropyl alcohol was added to dissolve formazan dye crystals. The plates were then rotated for 15–30 minutes, and absorbance was determined using a Perkin Elmer Ensight plate reader.

[3] = test system: P. berghei ookinete development (Ookluc parasites); assay: P. berghei ookinete luciferase inhibition assay; format: cell-based, Plasmodium berghei; details: dose–response 2.5–75 µM
Method: Mice were pretreated with phenylhydrazine [6 mg/mL, intraperitoneal injection (IP)] 3 days before intravenous injection (IV) infection with P. berghei Ookluc parasites ([19], [62]). Once parasitemia exceeded 15%, the mice received PYR (1 mg/mL, IP) ([19], [62]). Twenty-four hours after PYR treatment, infected mice were assessed for at least 10 exflagellations before blood was collected by heart puncture ([19], [62]). Infected blood (1:20 dilution) was incubated with 8-point serial dilutions (2.5–75 µM) of CB compounds for 24 hours at 19°C with gentle shaking ([62], [64]). Relative luminescence units (RLU) of mature ookinetes were measured using the Promega Nano-Glo Luciferase Assay System Kit and a SpectraMax M3 Microplate Reader (Molecular Devices, San Jose, CA, USA) after 3 minutes. Giemsa blood smears confirmed ookinetes.

P. falciparum D6 = assay: Malaria SYBR Green I-Based Fluorescence (MSF) assay, blood stages; format: cell-based; details: Plasmodium falciparum, D6; blood stages, 72 hours, drug-sensitive strain; read-out: IC50 (µM) (±SD) for strain: D6
Method: (§3) MSF assays were performed in vitro with four P. falciparum strains: D6 (drug sensitive), TM91-C235 (multidrug resistant), W2 (CQ resistant), and C2B (multidrug resistant against ATQ). Parasite strains were kept continuously in long-term cultures as described ([22]). Pre-dosed 384-well plates containing […] serial dilutions of CB compounds (0.0098–20 µM) were prepared using the Tecan Freedom Evo liquid handling system (Tecan USA, Inc., Durham, NC, USA) and were stored at 4°C. A CQ control plate (2,000 ng/mL) was included in each run. Based on modifications of previous methods ([17], [55]), late-ring or early-trophozoite stages were cultured in pre-dosed plates with 0.3% parasitemia and 2% hematocrit. Cultures were incubated for 72 hours at 37°C in a controlled atmosphere of 5% CO2, 5% O2, and 90% N2. Lysis buffer, consisting of 20 mM Tris HCl, 5 mM EDTA, 1.6% Triton X, 0.016% saponin, and SYBR Green I dye at a 20X concentration (Invitrogen #S-7567), was added to the plates for a final 10X SYBR Green concentration. Plates containing cell culture media and lysis buffer were incubated in the dark at 25°C for 24 hours, and the relative fluorescence units (RFU) were measured using the Tecan Genios Plus (Tecan USA, Inc.).

P. falciparum TM91c235 = assay: as above; format: cell-based; details: Plasmodium falciparum; blood stages, 72 hours, multidrug resistant strain; read-out: IC50 (µM) (±SD) for strain: TM91c235
Method: as §3

P. falciparum C2B = assay: as above; format: cell-based; details: Plasmodium falciparum, 72 h, read-out: IC50 (µM) (±SD) for strain: C2B
Method: as §3

P. falciparum W2 = assay: as above; format: cell-based; details: Plasmodium falciparum, W2; blood stages, 72 hours, CQ resistant strain; read-out: IC50 (µM) (±SD) for strain: W2
Method: as §3

[4] = molecular target: T1, recombinant P. falciparum GST (Plasmodium falciparum, UniProt Q8ILQ7); assay: GST inhibition assay (CDNB); format: biochemical
T1 construct: The open reading frames encoding PfGST, PbGST, and hGST were gene-synthesized; TEV cleavage site (C); Avitag (C); purchased InterRayBio, LLC; host or cells: E. coli BL21 (DE3)
T1 sequence (Q8ILQ7 1-211): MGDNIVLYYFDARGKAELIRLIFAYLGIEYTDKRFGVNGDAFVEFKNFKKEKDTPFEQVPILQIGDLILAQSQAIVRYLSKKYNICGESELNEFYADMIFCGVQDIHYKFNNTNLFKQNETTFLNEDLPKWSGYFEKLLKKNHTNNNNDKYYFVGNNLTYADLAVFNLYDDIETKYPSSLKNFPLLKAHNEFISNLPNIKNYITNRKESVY
Method: as §2

human GST = molecular target: T2, human GST (Homo sapiens, UniProt P08263); assay: GST inhibition assay (CDNB); format: biochemical
T2 construct: The open reading frames encoding PfGST, PbGST, and hGST were gene-synthesized; TEV cleavage site (C); Avitag (C); purchased InterRayBio, LLC; host or cells: E. coli BL21 (DE3)
T2 sequence (P08263 1-222): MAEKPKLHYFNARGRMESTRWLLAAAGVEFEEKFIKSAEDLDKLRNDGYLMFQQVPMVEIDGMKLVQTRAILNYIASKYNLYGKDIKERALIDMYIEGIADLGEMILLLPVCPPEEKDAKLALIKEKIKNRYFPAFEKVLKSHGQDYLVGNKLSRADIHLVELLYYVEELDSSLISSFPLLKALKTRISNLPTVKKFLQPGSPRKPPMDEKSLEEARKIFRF
Method: as §2

[5] = test system: P. cynomolgi hypnozoites and hepatic schizonts; assay: P. cynomolgi liver-stage inhibition assay; format: cell-based, Plasmodium cynomolgi; details: Plasmodium cynomolgi, prophylactic drug treatment mode
Method: as §1
PI = 100 ∗(1−(xy/Meanneg))

[6] = test system: P. berghei blood-stage parasites; assay: P. berghei blood-stage isobolograms; format: cell-based, Plasmodium berghei; details: LUM in combination with DHA (positive control)
Method: Antimalarial activity and IC50 values of CB-61 and five antimalarial drugs were assessed using the previously described in vitro drug luminescence assay ([14], [68]). Blood-stage isobolograms were performed to confirm synergistic combinations between CB-61 and the five drugs, following established protocols ([69]). Thirty-two-fold IC50 concentrations were used to obtain six concentration ranges for each drug combination, and then they were serially diluted five times ([67]). IC50 scores for each drug alone were determined, and FIC50 values (FIC50 = […]) were calculated and plotted ([70], [71]). The Promega Luciferase Assay System Kit was used to measure mature schizonts’ RLUs, and Giemsa blood smears confirmed the presence of schizonts ([14]).

[7] = test system: P. berghei male gamete activation; assay: Exflagellation assay (male gametocyte activation); format: cell-based, Plasmodium berghei; details: 125 nM, positive control
Method: Exflagellation assays were performed to assess the effect of CB compounds on P. berghei male gametocyte activation ([19]). Tail blood from PYR-administered mice was mixed with DMSO, aphidicolin (125 nM), or CB compounds (10 µM) in complete ookinete medium and heparin (30 µg/mL) ([19]). After a 15-minute incubation, the sample was diluted in complete ookinete medium with 10 µM inhibitor and adjusted to a final blood concentration of 1:20. Exflagellations were quantified by counting all events in the middle squares of a hemocytometer. The effect of CB compounds on macrogamete formation was analyzed by flow cytometry using the anti-Pbs21 antibody ([65]). Following PYR administration, infected blood for cardiac puncture was cultured with CB compounds (10 µM) for 2 hours to stimulate gametocyte activation ([66]). Aliquots were then incubated with anti-Pbs21 antibody (1:500) for 1 hour, followed by anti-mouse IgG conjugated Alexa Fluor 594 (1:1,000) for another hour ([65]). Samples were centrifuged (3,000 × g for 3 minutes), pellets were resuspended in phosphate-buffered saline (PBS) and analyzed by flow cytometry (FACSCelesta, FACS Diva Software, BD Biosciences, San Jose, CA, USA) with 1 million events counted per experiment ([66]).

[8] = recombinant GST 0.35 mg/mL, 1–50 µM

## O=C(Nc1cc(Cl)ccc1O)c1cc2nc(-c3ccccc3)cc(-c3ccccc3)n2n1 [CB-59]
[1]
  Toxicity: >10 µM
[2]; 6-point 1–50 µM
  GST inhibition: did not inhibit
In vitro
  IC50 at 48 h: > 20000 nM
[3]
  activity in ookinete formation: no activity
P. falciparum D6
  IC50: 1.73 µM
P. falciparum TM91c235
  IC50: 2.96 µM
P. falciparum C2B
  IC50: 2.91 µM
P. falciparum W2
  IC50: 0.69 µM
[4]; 6-point 1–50 µM
  GST inhibition: did not inhibit
Human GST; 6-point 1–50 µM
  GST inhibition: did not inhibit
[5]; read-out: Hypnozoite IC50
  pIC50: < 5.00
[5]; read-out: Schizont IC50
  pIC50: < 5.00
[5]; read-out: Total parasite IC50
  pIC50: < 5.00

## CCCCN(CCCC)CC(O)c1cc(Cl)cc2c1-c1ccc(Cl)cc1/C2=C/c1ccc(Cl)cc1 (stereo not drawn) [LUM, lumefantrine, reference compound]
[6]
  Mean ΣFIC50: 0.74

## C[C@@]1(CO)[C@H](O)CC[C@@]2(C)[C@H]1CC[C@H]1C[C@@H]3C[C@@]12CC[C@]3(O)CO [aphidicolin]
[7]
  number of exflagellation events: < 50%

## Hemin [reference compound]
[2]; [8]
  pIC50: 4.79
[4]; [8]
  pIC50: 5.80
Human GST; [8]
  pIC50: > 6.00
